The target in one data set is T1, FLT-3 (Homo sapiens, UniProt P36888).
T1 sequence (P36888 27-993): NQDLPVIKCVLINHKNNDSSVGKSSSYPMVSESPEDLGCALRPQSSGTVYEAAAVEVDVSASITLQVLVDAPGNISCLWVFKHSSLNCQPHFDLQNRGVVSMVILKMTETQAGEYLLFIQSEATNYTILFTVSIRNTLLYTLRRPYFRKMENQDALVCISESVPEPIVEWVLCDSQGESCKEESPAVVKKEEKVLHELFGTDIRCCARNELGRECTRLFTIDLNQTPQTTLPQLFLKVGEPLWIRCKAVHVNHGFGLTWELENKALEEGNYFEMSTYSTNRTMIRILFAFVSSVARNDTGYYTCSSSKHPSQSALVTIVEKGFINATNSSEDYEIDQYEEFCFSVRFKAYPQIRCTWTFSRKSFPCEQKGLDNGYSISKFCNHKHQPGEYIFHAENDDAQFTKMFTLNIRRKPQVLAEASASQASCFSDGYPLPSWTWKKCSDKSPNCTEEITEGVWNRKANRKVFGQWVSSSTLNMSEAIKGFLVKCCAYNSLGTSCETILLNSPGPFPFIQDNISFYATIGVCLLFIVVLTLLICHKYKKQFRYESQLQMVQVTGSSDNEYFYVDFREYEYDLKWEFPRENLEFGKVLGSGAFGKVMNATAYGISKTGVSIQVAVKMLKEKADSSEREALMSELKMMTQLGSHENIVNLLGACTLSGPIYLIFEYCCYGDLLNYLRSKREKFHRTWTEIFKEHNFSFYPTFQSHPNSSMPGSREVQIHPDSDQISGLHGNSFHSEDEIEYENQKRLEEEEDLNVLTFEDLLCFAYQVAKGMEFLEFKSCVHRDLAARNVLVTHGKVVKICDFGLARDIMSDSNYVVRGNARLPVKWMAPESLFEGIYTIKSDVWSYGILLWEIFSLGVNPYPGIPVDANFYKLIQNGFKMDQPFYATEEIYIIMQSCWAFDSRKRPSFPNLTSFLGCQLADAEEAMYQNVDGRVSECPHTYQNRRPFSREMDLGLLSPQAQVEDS
The data set can be described thus: radioisotope-based P81 filter-binding assay, FLT-3 kinase. Particulars: for IC50: averaged from two independent dose-response curves, read-out: Enzyme assay IC50 FLT-3. Format: biochemical. Here is the method:
(§1) Compounds of formula (I)-(IV) were evaluated for abilities in inhibiting protein kinases aurora B and FLT-3 activity using radioisotope-based P81 filter-binding assay (Table 1).

For another data set, the target named is aurora B (Homo sapiens, UniProt Q96GD4). The data set can be described thus: radioisotope-based P81 filter-binding assay, aurora B kinase. Particulars: for IC50: averaged from two independent dose-response curves, read-out: Enzyme assay IC50 Aur B; for inhibition at 1 µM: compound at 1.0 μM, mean values (n=2), read-out: percent inhibition of enzyme catalytic activity, Aur B (numbers in parentheses). Format: biochemical. Here is the method:
as §1

Data set [1] relates to A549 human lung carcinoma cells. In words: anti-proliferation, SRB colorimetric assay, A549. The data set is classed as cell-based. Particulars: concentration required for 50% growth inhibition, read-out: IC50 (μM, mean ± S.D.). A general note: In SRB staining, fixed cells bind dye roughly in proportion to their protein.
Data set [2] concerns HCT116 human colorectal carcinoma cells. The data set can be described thus: anti-proliferation, SRB colorimetric assay, HCT116. Format: cell-based. Particulars: HCT-116, concentration required for 50% growth inhibition, read-out: IC50 (μM, mean ± S.D.). On the procedure: (§2) HCT116 human colorectal carcinoma cells (Table 3), HepG2 human hepatocellular carcinoma cells (Table 4), and MV4-11 human acute myelomonocytic leukemia cells (Table 5). Cells were treated with the test compound and the concentration required for 50% growth inhibition (IC50) determined by sulfomodamine B (SRB) colorimetric assay.

Data set [3] concerns HepG2 human hepatocellular carcinoma cells. In words: anti-proliferation, SRB colorimetric assay, HepG2. The data set is classed as cell-based. Particulars: concentration required for 50% growth inhibition, read-out: IC50 (μM, mean ± S.D.). The source says: HCT116 human colorectal carcinoma cells (Table 3), HepG2 human hepatocellular carcinoma cells (Table 4), and MV4-11 human acute myelomonocytic leukemia cells (Table 5).

In data set [4] the test system is MV4-11 human acute myelomonocytic leukemia cells. The data set can be described thus: anti-proliferation, SRB colorimetric assay, MV4-11. Format: cell-based. Particulars: concentration required for 50% growth inhibition. On the procedure:
as §2

Where only a bound is given, the exact number is not on record here.

Sequence of aurora B (Q96GD4 whole entry): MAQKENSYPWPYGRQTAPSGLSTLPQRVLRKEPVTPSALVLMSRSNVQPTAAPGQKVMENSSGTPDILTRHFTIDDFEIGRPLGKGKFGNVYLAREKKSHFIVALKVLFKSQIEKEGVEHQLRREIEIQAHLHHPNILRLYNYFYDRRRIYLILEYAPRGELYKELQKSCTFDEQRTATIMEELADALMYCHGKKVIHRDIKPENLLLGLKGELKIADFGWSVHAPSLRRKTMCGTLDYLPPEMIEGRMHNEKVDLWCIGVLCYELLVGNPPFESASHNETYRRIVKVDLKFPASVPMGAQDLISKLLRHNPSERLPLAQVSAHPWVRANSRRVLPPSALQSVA

As a reminder, the melting point is the temperature, or range, at which the solid turns liquid. A word on the IC50: it is the concentration at which inhibition is half-maximal. For `CCN(CC)CCNC(=O)c1c(C)[nH]c(/C=C2\C(=O)Nc3cc(NC(=O)NC(=O)c4ccc(OC)cc4F)ccc32)c1C` [D69, (Z)—N-(2-(diethylamino)ethyl)-5-((6-(3-(2-fluoro-4-methoxybenzoyl)ureido)-2-oxoindolin-3-ylidene)methyl)-2,4-dimethyl-1H-pyrrole-3-carboxamide], the melting point is 275 to 280 °C (dec.). For the same compound, the IC50 at FLT-3 worked out at 4.4 nM. For the same compound, on aurora B, the IC50 is 7.6 nM. In addition, the IC50 in data set [1] was 0.46 ± 0.07 µM. Also, the IC50 in data set [2] was 0.91 ± 0.01 µM. Besides, the IC50 in data set [3] was found to be 0.88 ± 0.04 µM.

`O=C1Nc2cc(NC(=O)c3c[nH]cc(-c4cc(F)cc(F)c4)c3=O)ccc2/C1=C/c1ccc[nH]1` [D136, (Z)—N-(3-((1H-pyrrol-2-yl)methylene)-2-oxoindolin-6-yl)-4-oxo-5-(3,5-difluorophenyl)-1,4-dihydropyridine-3-carboxamide] displayed a melting point of over 300 °C. The half-maximal inhibitory concentration (IC50) on FLT-3 is over 1000 nM. In addition, the IC50 at aurora B worked out at 123 nM. The IC50 in data set [1] is 0.6 µM. Also, the IC50 in data set [2] amounted to 0.6 µM. In data set [3], the IC50 amounted to 0.6 µM.

`Cc1[nH]c(/C=C2\C(=O)Nc3cc(NC(=O)c4c[nH]cc(-c5ccc(F)cc5)c4=O)ccc32)c(C)c1C(=O)N1CCN(C)CC1` [D149, (Z)—N-(3-((3,5-dimethyl-4-(4-methylpiperazine-1-carbonyl)-1H-pyrrol-2-yl)methylene)-2-oxoindolin-6-yl)-5-(4-fluorophenyl)-4-oxo-1,4-dihydropyridine-3-carboxamide]: the melting point was 283 °C (dec.). Further, the IC50 on FLT-3 came to 1.4 nM. Besides, on aurora B, the IC50 was found to be 70.5 nM. Besides, the IC50 in data set [4] came out at 0.05 nM. Also, the 50% inhibitory concentration (IC50) in data set [1] was 0.55 ± 0.05 µM. Also, the IC50 in data set [3] was 0.65 ± 0.11 µM.

The compound `Cc1[nH]c(/C=C2\C(=O)Nc3cc(NC(=O)c4c[nH]cc(-c5ccc(F)cc5)c4=O)ccc32)c(C)c1CC(=O)N1CCN(C)CC1` [D150, (Z)—N-(3-((3,5-dimethyl-4-(2-(4-methylpiperazin-1-yl)-2-oxoethyl)-1H-pyrrol-2-yl)methylene)-2-oxoindolin-6-yl)-5-(4-fluorophenyl)-4-oxo-1,4-dihydropyridine-3-carboxamide] returned a melting point of over 300 °C. Moreover, at FLT-3, the IC50 worked out at 10.3 nM. The half-inhibitory concentration (IC50) on aurora B was 91.6 nM. In addition, the IC50 in data set [4] was 0.1 nM. In addition, the 50% inhibitory concentration (IC50) in data set [1] stood at 0.57 ± 0.04 µM. The half-inhibitory concentration (IC50) in data set [3] was 0.7 ± 0.07 µM.

On to `COc1ccc(C(=O)NC(=O)Nc2ccc3c(c2)NC(=O)/C3=C\c2[nH]c(C)c(C(=O)NCCN3CCCC3)c2C)c(F)c1` [D70, (Z)-5-((6-(3-(2-fluoro-4-methoxybenzoyl)ureido)-2-oxoindolin-3-ylidene)methyl)-2,4-dimethyl-N-(2-(pyrrolidin-1-yl)ethyl)-1H-pyrrole-3-carboxamide], for which the IC50 was 0.5 nM at FLT-3; 0.4 nM at aurora B; 0.56 ± 0.05 µM in data set [1]; 0.85 ± 0.08 µM in data set [2]; 0.68 ± 0.03 µM in data set [3].

Regarding `O=C1Nc2cc(NC(=O)c3cccn(-c4ccc(Cl)c(Cl)c4)c3=O)ccc2/C1=C/c1ccc[nH]1` [D110, (Z)—N-(3-((1H-pyrrol-2-yl)methylene)-2-oxoindolin-6-yl)-1-(3,4-dichlorophenyl)-2-oxo-1,2-dihydropyridine-3-carboxamide], the IC50 was 59.9 nM on FLT-3; over 1000 nM at aurora B; 2.4 nM in data set [4]; 0.85 ± 0.13 µM in data set [2]; 0.82 ± 0.03 µM in data set [3].

Consider `COc1ccc(C(=O)NC(=O)Nc2ccc3c(c2)NC(=O)/C3=C\c2[nH]c(C)c(C(=O)NCCN(C)C)c2C)c(F)c1` [D68], for which the IC50 on FLT-3 is 16.2 nM; on aurora B, 10.5 nM; in data set [1], 0.47 ± 0.01 µM; in data set [2], 0.87 ± 0.06 µM; in data set [3], 0.74 ± 0.07 µM.

`Cc1ccc(C(=O)NC(=O)Nc2ccc3c(c2)NC(=O)/C3=C\c2[nH]c(C)c(C(=O)O)c2C)cc1` [D39, (Z)-2,4-dimethyl-5-((6-(3-(4-methylbenzoyl)ureido)-2-oxoindolin-3-ylidene)-methyl)-1H-pyrrole-3-carboxylic acid]: the melting point was 295 to 300 °C (dec.). Also, the IC50 on FLT-3 was 265 nM. Moreover, the IC50 at aurora B was found to be 2.5 nM. The compound also returned an IC50 in data set [4] of 7.21 nM. Besides, the IC50 in data set [1] came to 0.77 ± 0.11 µM. For the same compound, in data set [3], the IC50 was 0.63 ± 0.21 µM.

With `Cc1[nH]c(/C=C2\C(=O)Nc3cc(NC(=O)NC(=O)c4ccccc4F)ccc32)c(C)c1C(=O)O` [D53, (Z)-5-((6-(3-(2-fluorobenzoyl)ureido)-2-oxoindolin-3-ylidene)methyl)-2,4-dimethyl-1H-pyrrole-3-carboxylic acid], the melting point is 264 to 269 °C (dec.). The IC50 at FLT-3 is 508 nM. In addition, the IC50 at aurora B is 3.7 nM. The compound also registered an IC50 in data set [4] of 8.07 nM. Also, in data set [1], the half-inhibitory concentration (IC50) was 0.63 ± 0.08 µM. In addition, the IC50 in data set [3] came out at 0.85 ± 0.11 µM.

By inhibition is commonly meant the change of the read-out against control, counted positive when it falls. Regarding `COc1ccc(C(=O)NC(=O)Nc2ccc3c(c2)/C(=C/c2ccc[nH]2)C(=O)N3)cc1` [D14, (Z)—N-(3-((1H-pyrrol-2-yl)methylene)-2-oxoindolin-5-ylcarbamoyl)-4-methoxybenzamide], the melting point was 285 to 290 °C (dec.). Further, on FLT-3, the half-maximal inhibitory concentration (IC50) was determined as 201 nM. Moreover, the inhibition at 1 µM at aurora B was found to be 39.3%. Also, in data set [4], the 50% inhibitory concentration (IC50) is 0.07 nM. Besides, in data set [1], the IC50 turned out to be 0.73 ± 0.02 µM. Also, the IC50 in data set [3] came out at 0.64 ± 0.01 µM.

With `COc1ccc(C(=O)NC(=O)Nc2cccc3c2NC(=O)/C3=C\c2ccc[nH]2)cc1` [D16, (Z)—N-(3-((1H-pyrrol-2-yl)methylene)-2-oxoindolin-7-ylcarbamoyl)-4-methoxybenzamide], the melting point is 253 to 258 °C (dec.). Besides, the inhibition at 1 µM on FLT-3 (compound at 1.0 μM, mean values (n=2), read-out: percent inhibition of enzyme catalytic activity, FLT-3 (numbers in parentheses)) was found to be 6.9%. Also, the inhibition at 1 µM on aurora B was 7.3%. Besides, in data set [1], the IC50 is 0.99 ± 0.08 µM. The IC50 in data set [3] is 0.84 ± 0.01 µM.

`O=C1Nc2cc(NC(=O)c3cccn(-c4ccc(F)cc4)c3=O)ccc2/C1=C/c1ccc[nH]1` [D107, (Z)—N-(3-((1H-pyrrol-2-yl)methylene)-2-oxoindolin-6-yl)-1-(4-fluorophenyl)-2-oxo-1,2-dihydropyridine-3-carboxamide]: the melting point lay in the range of 295 to 296 °C. At FLT-3, the IC50 came out at 8.6 nM. In addition, at aurora B, the IC50 was found to be 791 nM. For the same compound, the IC50 in data set [4] was found to be 0.02 nM. Besides, the IC50 in data set [1] was 0.7 ± 0.2 µM. The IC50 in data set [3] came to 0.9 ± 0.2 µM.

Regarding `Cc1[nH]c(/C=C2\C(=O)Nc3cc(NC(=O)c4c[nH]cc(-c5ccc(F)cc5)c4=O)ccc32)c(C)c1CCC(=O)N1CCN(C)CC1` [D151, (Z)—N-(3-((3,5-dimethyl-4-(3-(4-methylpiperazin-1-yl)-3-oxopropyl)-1H-pyrrol-2-yl)methylene)-2-oxoindolin-6-yl)-5-(4-fluorophenyl)-4-oxo-1,4-dihydropyridine-3-carboxamide], the melting point is 250 °C. In addition, the IC50 on FLT-3 was 4.8 nM. Besides, the IC50 at aurora B is 107 nM. Further, the IC50 in data set [4] worked out at 0.34 nM. The IC50 in data set [1] is 0.66 ± 0.07 µM. Moreover, the IC50 in data set [3] is 0.88 ± 0.13 µM.

For the compound `COc1ccc(C(=O)NC(=O)Nc2ccc3c(c2)NC(=O)/C3=C\c2[nH]c(C)c(C(=O)O)c2C)cc1` [D41, (Z)-5-((6-(3-(4-methoxybenzoyl)ureido)-2-oxoindolin-3-ylidene)-methyl)-2,4-di-methyl-1H-pyrrole-3-carboxylic acid], the IC50 on FLT-3 was determined as 180 nM; on aurora B it was 1.9 nM; in data set [1], 0.48 ± 0.05 µM; in data set [3] it was 0.73 ± 0.13 µM.
